Results taken from patent US11160785B2, “Methods and compositions for improving cognitive function” (AgeneBio, Inc., priority 2013, dated 2021).

Legend:
MAM-treated rats = settings: cited from earlier work
aged-impaired rats [1] = experiment: Radial Arm Maze task, acute brivaracetam or seletracetam (Example 4); settings: rat, in vivo
aged-impaired rats [2] = experiment: water maze task after chronic treatment (Example 4); format: in vivo, rat; settings: brivaracetam 2 mg/kg/day, osmotic mini-pump
Text: Another cognitive test that may be used to assess the effects of a test compound on the cognitive impairment of a CNS disorder model animal is the Morris water maze. A water maze is a pool surrounded with a novel set of patterns relative to the maze. […] The subject is trained to locate a submerged escape platform hidden underneath the surface of the pool. During the training trial, a subject is released in the maze (pool) from random starting positions around the perimeter of the pool. The starting position varies from trial to trial. […] After a delay period following the last training trial, a retention test in the absence of the escape platform is given to assess spatial memory. The subject's level of preference for the location of the (now absent) escape platform, as measured by, e.g., the time spent in that location or the number of crossings of that location made by the mouse, indicates better spatial memory, i.e., treatment of cognitive impairment. The preference for the location of the escape platform under different treatment conditions, can then be compared for efficacy of the test compound in treating cognitive impairment associated with CNS disorders.
The radial arm maze experiments used acute administration of seletracetam (0-4 mg/kg), brivaracetam (0-4 mg/kg), or saline vehicle given by intraperitoneal injection (in a volume of 1 ml/kg) 30-40 min prior to test sessions. In the chronic treatment experiment, memory-impaired aged rats were implanted subcutaneously in the intrascapular region with osmotic mini-pumps (ALZET, Durect Corporation, Cupertino, Calif.) with brivaracetam (2 mg/kg/day) or saline vehicle starting two weeks prior to assessment in the water maze.
Rats were trained and tested in a novel water maze environment to assess the effect of drug treatment. The water maze used here was housed in a different building and was surrounded by curtains with a novel set of patterns relative to the maze used for initial assessment of cognitive status. The training protocol consisted of 6 trials per day for 2 days to locate a submerged escape platform. […]

aged-impaired rats (AI) = format: in vivo, rat; settings: rat, in vivo
Procedure: FIG. 1 depicts the effects of administering levetiracetam on the spatial memory retention of ten aged-impaired rats (AI) in an eight-arm Radial Arm Maze (RAM) test. Six treatment conditions are employed: vehicle control, levetiracetam (1.25 mg/kg/day), levetiracetam (2.5 mg/kg/day), levetiracetam (5 mg/kg/day), levetiracetam (10 mg/kg/day) and levetiracetam (20 mg/kg/day). In the RAM task used, there is a one-hour delay between presentation of a subset of arms (5 arms available and 3 arms blocked) and completion of the eight-arm win-shift task (eight arms available). Rats are pre-treated 30-40 minutes before daily trials with a one-time drug/control treatment. The number of errors made by the rats during the retention phase is used as a measure of spatial memory retention. Errors are defined as instances when rats enter an arm from which food has already been retrieved in the pre-delay component of the trial or when rats re-visit an arm in the post-delay session that had already been visited. Paired t-tests are used to compare the number of errors between different doses of levetiracetam and vehicle control. […]
A Radial Arm Maze (RAM) behavioral task is one example of a cognitive test, specifically testing spacial memory (Chappell et al. Neuropharmacology 37: 481-487, 1998). The RAM apparatus consists of, e.g., eight equidistantly spaced arms. A maze arm projects from each facet of a center platform. A food well is located at the distal end of each arm. Food is used as a reward. Blocks can be positioned to prevent entry to any arm. Numerous extra maze cues surrounding the apparatus may also be provided. After habituation and training phases, spatial memory of the subjects may be tested in the RAM under control or test compound-treated conditions. As a part of the test, subjects are pretreated before trials with a vehicle control or one of a range of dosages of the test compound. At the beginning of each trial, a subset of the arms of the eight-arm maze is blocked. Subjects are allowed to obtain food on the unblocked arms to which access is permitted during this initial “information phase” of the trial. Subjects are then removed from the maze for a delay period, e.g., a 60 second delay, a 15 minute delay, a one-hour delay, a two-hour delay, a six hour delay, a 24 hour delay, or longer) between the information phase and the subsequent “retention test,” during which the barriers on the maze are removed, thus allowing access to all eight arms. […] The identity and configuration of the blocked arms vary across trials. The number of “errors” the subjects make during the retention test phase is tracked. An error occurs in the trial if the subjects entered an arm from which food had already been retrieved in the pre-delay component of the trial, or if it re-visits an arm in the post-delay session that had already been visited. A fewer number of errors would indicate better spatial memory. The number of errors made by the test subject, under various test compound treatment regimes, can then be compared for efficacy of the test compound in treating cognitive impairment associated with CNS disorders.

C#Cc1ccc2c(c1)C(c1ccccc1F)=N[C@H](C)c1c(C(=O)OCC)ncn1-2 [SH-053-2′F-R-CH3]
number of spontaneously active DA neurons in the ventral tegmental area (VTA) (MAM-treated rats; MAM rats, administered systemically or infused into the ventral HPC, to levels of saline-treated rats): reduces the number of spontaneously active DA neurons | increased locomotor response to amphetamine (MAM-treated rats; MAM-treated rats): reduced | cortical-evoked responses of HPC neurons (MAM-treated rats; saline-treated and MAM-treated animals): diminished cortical-evoked responses

CCC[C@@H]1CC(=O)N([C@@H](CC)C(N)=O)C1 [brivaracetam]
number of errors in the retention phase, effect as a function of dose (aged-impaired rats [1]): significant effect as a function of dose | spatial bias for the target quadrant compared to the other quadrants (probe test) (aged-impaired rats [2]; 14 days, n=3/group, t(2)=10.000, p=0.010): significant spatial bias for the target quadrant | time in the target annulus vs vehicle-treated rats (aged-impaired rats [2]; t(4)=3.109, p=0.036): significantly more time in the target annulus | time in the target quadrant vs vehicle-treated rats (aged-impaired rats [2]; t(4)=3.881, p=0.018): significantly more time in the target quadrant

COc1cc2c(cc1OC)C(=O)C(CC1CCN(Cc3ccccc3)CC1)C2 (stereo not drawn) [donepezil, 2,3-dihydro-5,6-dimethoxy-2-((1-(phenylmethyl)-4-piperidinyl)methyl)-1H-inden-1-one]
average no. of errors±SEM (aged-impaired rats (AI)): 2.81±0.43 | average no. of errors±standard error of the mean (SEM) (aged-impaired rats (AI)): 2.88±0.46

CC[C@@H](C(N)=O)N1C[C@H](C=C(F)F)CC1=O [seletracetam]
number of errors in the retention phase, effect as a function of dose (aged-impaired rats [1]): significant effect as a function of dose

NC1=N[C@H](O)[C@H]2[C@H]3O[C@]4(O)O[C@@H]([C@@H](O)[C@@]2(N1)[C@@H]4O)[C@]3(O)CO [tetrodotoxin]
augmented amphetamine-induced locomotor behavior (MAM-treated rats; rat, in vivo): normalized the augmented amphetamine-induced locomotor behavior | elevated DA neuron population activity (MAM-treated rats; rat, in vivo): completely reversed the elevated DA neuron population activity
